# Experimental data: US6630569B1, “Ectoparasiticide agents” (priority 1998, dated 2003)
# Experiments:
# [1] = tested on: Lucilia cuprina larvae (1st-3rd stage); test: Blowfly larvae test / development-inhibitory action; assay type: in vivo; details: 100% = no flies hatched
# Procedure: Blowfly Larvae Test/Development-inhibitory Action
# Test animals: Lucilia cuprina larvae (1st-3rd stage)
# (§1) Solvent: Dimethyl sulphoxide
# 20 mg of active compound are dissolved in one ml of dimethyl sulphoxide. To prepare a suitable formulation, the solution of active compound is diluted with water to the particular desired concentration.
# About 20 Lucilia cuprina larvae are introduced into a test tube which contains about 1 cm^3 of horse meat and 0.5 ml of the preparation of active compound to be tested. After 24 hours and 48 hours, the effectiveness of the preparation of active compound is determined. The test tubes are transferred into beakers whose bottom is covered with sand. After a further two days, the test tubes are removed and the pupae are counted.
# The effect of the preparation of active compound is assessed by the number of flies which have hatched after 1.5 times the development period of an untreated control. 100% means that no flies have hatched; 0% means that all flies have hatched normally.
# [2] = tested on: silkworms; details: in vivo; cited from earlier work
# [3] = tested on: All stages of Boophilus microplus, pyrethroid-resistant strain; test: In vivo test on ticks / mini-dip on cattle; details: dosage 1000 μg, 100% = no ticks with fertile eggs
# Procedure: In vivo Test on Ticks/mini-dip on Cattle
# Test object: All stages of Boophilus microplus (larvae, metalarvae, nymphs, metanymphs and adults) pyrethroid-resistant strain.
# Solution: Active compound 30% strength in methyl glycol and emulsifier NP 10 in a ratio of 1:1.
# For the treatment of the cattle, concentrations of 1000, 300, 100, 30, 10 and 1 ppm are used, in a volume of 200 ml. The cattle hide to be treated is wetted with the solution of active compound for 1 min.
# 14×, in intervals of two days, cattle is infected with about 3000 14- to 28-day-old larvae of B. microplus which have not been fed. On day 23 p.i., defined areas on the surface of the cattle skin are wetted with the abovementioned preparation of active compound. From day 24 to 45 p.i., the female adult ticks which develop are counted, and the fertility of the eggs laid by these ticks is checked and used to determine the activity of the preparation of active compound.
# [4] = tested on: Adult females of Boophilus microplus (parkhurst strain, SP-resistant); test: Test with resistant monoxenous cattle ticks / SP-resistant Parkhurst strain (injection into abdomen); assay type: in vivo; details: dosage 20 μg injected; 100% = no fertile eggs
# Procedure: Test with Resistant Monoxenous Cattle Ticks/SP-resistant Parkhurst Strain
# Test animals: Adult females of Boophilus microplus (parkhurst strain, SP-resistant) which have sucked themselves full
# as §1
# 20 mg of active compound are dissolved in one ml of dimethyl sulphoxide, more dilute concentrations are prepared by dilution in the same solvent.
# The test is carried out in five replications. 1 μl of the solutions is injected into the abdomen, and the animals are transferred into dishes and kept in a climatized room. After seven days, the activity is checked by examination for the position of fertile eggs. Eggs whose fertility is not visible from the outside are stored in glass tubes in a controlled-environment cabinet until the larvae have hatched after about 24 days. An activity of 100% means that the tick has not produced any fertile eggs.
# [5] = tested on: Adults of Ctenocephalides felis; test: Test with cat fleas / oral uptake; assay type: in vivo; details: dosage 100 μg; mortality after 24 h, blood feeding
# Procedure: Test with Cat Fleas/oral Uptake
# Test animals: Adults of Ctenocephalides felis
# Solvent: Dimethyl sulphoxide (DMSO)
# 7.5 μl of this formulation are added to 3.5 ml of citrated cattle blood and stirred.
# 20 unfed adult fleas (Ctenocephalides felis, strain “Georgi”) are placed into a chamber (Ø 2.5 cm) whose top and bottom are closed with gauze. A metal cylinder whose underside is covered with parafilm is placed onto the chamber. […] Whereas the blood is warmed to 37° C., the temperature in the area of the flea chambers is adjusted to 25° C. Controls are mixed with the same volume of DMSO, without addition of a compound. The determinations are carried out in triplicate.
# After 24 h, the mortality in % (=dead fleas) is determined, using imidacloprid as standard.
SMILES,Activity (in %) ([1]; dosage 1000 ppm) [%],insecticidal activity against silkworms [2],Activity (in %) [3] [%],Activity (in %) [4] [%],Activity (in %) [5] [%],Activity (in %) ([1]; dosage 100 ppm) [%]
"CC(C)C[C@H]1C(=O)O[C@H](Cc2ccccc2)C(=O)N(C)[C@@H](CC(C)C)C(=O)O[C@H](C)C(=O)N(C)[C@@H](CC(C)C)C(=O)O[C@H](Cc2ccccc2)C(=O)N(C)[C@@H](CC(C)C)C(=O)O[C@H](C)C(=O)N1C [PF 1022A, cyclo(-N-methyl-L-leucinyl-D-lactyl-N-methyl-L-leucinyl-D-phenyllactyl-N-methyl-L-leucinyl-D-lactyl-N-methyl-L-leucinyl-D-phenyllactyl-)]",0,insecticidal activity,0,0,0,
CC(C)C[C@H]1C(=O)O[C@H](C(C)C)C(=O)N(C)[C@@H](CC(C)C)C(=O)O[C@H](C(C)C)C(=O)N(C)[C@@H](CC(C)C)C(=O)O[C@H](C(C)C)C(=O)N(C)[C@@H](CC(C)C)C(=O)O[C@H](C(C)C)C(=O)N1C [bassianolide],,insecticidal activity,,,,
"CC(C)C[C@@H]1C(=O)O[C@@H](Cc2ccc(N3CCOCC3)cc2)C(=O)N(C)[C@H](CC(C)C)C(=O)O[C@@H](C)C(=S)N(C)[C@H](CC(C)C)C(=O)O[C@@H](Cc2ccc(N3CCOCC3)cc2)C(=O)N(C)[C@H](CC(C)C)C(=O)O[C@@H](C)C(=O)N1C [compound 9, Cyclo-(N-methyl-L-leucinyl-D-thiolactyl-N-methyl-L-leucinyl-D-4-morpholino-phenyllactyl-N-methyl-L-leucinyl-D-lactyl-N-methyl-L-leucinyl-D-4-N-morpholinophenyllactyl-)]",100,,,,100,100
